This is an account of results in ChEMBL document CHEMBL1201862, “PubChem BioAssay data set” (2004).

Common to all, as to assay: growth of human tumour cells (NCI), 48 h
Experiment [1] has as its system NCI-H226.
The subject of experiment [2] is NCI-H460.
Experiment [3] concerns SNB-19.
Experiment [4] relates to SF-268.
For experiment [5], the system named is OVCAR-3.
The subject of experiment [6] is LOX IMVI.
Experiment [7] has as its system HL-60.
Experiment [8] has as its system HCC 2998.
For experiment [9], the system named is SK-MEL-28.
Experiment [10] has as its system ACHN.
The test system of experiment [11] is UACC-257.
For experiment [12], the system named is CCRF-CEM.
The subject of experiment [13] is KM12.
Experiment [14] concerns UO-31.
Experiment [15] has as its system SNB-75.
Experiment [16] relates to OVCAR-5.
In experiment [17] the test system is A498.
Experiment [18] deals with HOP-92.

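Each compound was tested at five concentrations against cells in 96-well plates for 48 hours. GI50 is the concentration that inhibits growth by half.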 Activity calls are given as the source filed them. No stated cut-off is given here; in the data, active = GI50 up to about 1.1 µM and inactive = higher.

Turning to `CCCC(=O)N[C@@H](Cc1cc(I)c(O)c(I)c1)C(=O)NCCCNCCCCNCCCNC(=O)[C@@H](N)CCCN=C(N)N`, the GI50 is > 100 µM (inactive) in [1]; 34.2 µM (inactive) in [2]; > 100 µM (inactive) in experiment [3]; > 10 µM (inactive) in [4]; > 100 µM (inactive) in experiment [5]; 94 µM (inactive) in [6]. Further, the GI50 was 33.7 µM (inactive) in [7]; 42.3 µM (inactive) in experiment [8]; 50.4 µM (inactive) in [9]; 40.1 µM (inactive) in experiment [10]; > 100 µM (inactive) in experiment [11]; > 100 µM (inactive) in experiment [12]. In addition, the GI50 in [13] was 55 µM (inactive); in experiment [14] it was 29.8 µM (inactive).
In the case of `COc1c(Sc2ccccc2)cc(Sc2ccccc2)c2cccnc12`, the GI50 in experiment [2] was 20.2 µM (inactive); in experiment [15] it was 19.5 µM (inactive); in [3], 31.8 µM (inactive); in experiment [4], 37.3 µM (inactive); in [5], 20.9 µM (inactive); in experiment [6], 17.6 µM (inactive). Also, the GI50 in [16] is 40.2 µM (inactive); in experiment [8], 41.9 µM (inactive); in experiment [9] it was 35.9 µM (inactive); in experiment [10], 26.8 µM (inactive); in [17], 29.1 µM (inactive); in experiment [11], 18.2 µM (inactive). The GI50 in experiment [12] is 20 µM (inactive); in [13] it was 24.4 µM (inactive); in experiment [14], 19.1 µM (inactive).
As for `CC(=O)CC(=O)ON(C)C(C)=O`, the GI50 in experiment [1], in [2], in experiment [15], in [3], in experiment [4] and in experiment [5] was > 100 µM (inactive) each time. For the same compound, the GI50 in [6], in experiment [7], in experiment [16], in [8], in experiment [9] and in experiment [10] was > 100 µM (inactive) throughout. Also, the GI50 in experiment [11] was 7.69 µM (inactive); in experiment [12], > 100 µM (inactive); in [13] it was > 100 µM (inactive); in [14] it was > 100 µM (inactive).
For the compound `O=C1/C(=C/c2ccccc2)CN(C(=O)OCC(Cl)(Cl)Cl)C/C1=C\c1ccccc1`, the GI50 in experiment [2] was 2.1 µM (inactive); in [15] it was 3.86 µM (inactive); in experiment [3], 3.27 µM (inactive); in experiment [4], 3.81 µM (inactive); in experiment [5], 4.19 µM (inactive); in experiment [6], 0.792 µM (active). For the same compound, the GI50 was 0.897 µM (active) in experiment [7]; 5.52 µM (inactive) in [16]; 1.66 µM (inactive) in [9]; 1.98 µM (inactive) in [10]; 2 µM (inactive) in [17]; 2.09 µM (inactive) in [11]. In addition, the GI50 was 1.71 µM (inactive) in experiment [12], 1.69 µM (inactive) in experiment [13] and 3.52 µM (inactive) in [14].
For the compound `CN(/C(=N\O)c1ccccc1)c1ccccc1`, the GI50 in experiment [1] was 21.3 µM (inactive); in experiment [2] it was 32.5 µM (inactive); in experiment [15], 13.5 µM (inactive); in experiment [3], 27.9 µM (inactive); in [4], 28.1 µM (inactive); in experiment [5] it was 21.7 µM (inactive). Also, the GI50 in experiment [6] was 22.6 µM (inactive); in [7] it was 19.7 µM (inactive); in experiment [16], 88.9 µM (inactive); in [8], 25.9 µM (inactive); in experiment [18], 5.12 µM (inactive); in experiment [11], 38.6 µM (inactive). The GI50 in experiment [13] is 36.3 µM (inactive); in experiment [14], 25.5 µM (inactive).
On to `COC1CC(n2cnc3c(N)ncnc32)OC1CO` (stereo not given), for which the GI50 in experiment [1], in experiment [2], in [15], in experiment [3], in experiment [4] and in [5] was > 100 µM (inactive) each time. Besides, the GI50 in [7], in [16], in experiment [8], in experiment [9], in experiment [10] and in experiment [18] was > 100 µM (inactive) each time. In addition, the GI50 in [11] was > 100 µM (inactive); in [12] it was 56 µM (inactive); in [13], > 100 µM (inactive); in experiment [14] it was > 100 µM (inactive).
On to `C/C(CC(=O)Nc1ccc(C)c(C)c1)=N\NC(N)=S`, for which the GI50 in experiment [1], in experiment [2], in [15], in experiment [4], in [5] and in [6] was > 100 µM (inactive) throughout. The GI50 in experiment [7], in experiment [16], in experiment [8], in experiment [9], in experiment [10] and in experiment [18] was > 100 µM (inactive) each time. Further, the GI50 in experiment [11], in experiment [12], in experiment [13] and in [14] was > 100 µM (inactive) in each case.
`Cn1c(=O)c(C(=O)NC23CC4CC(CC(C4)C2)C3)c(O)c2ccccc21`: the GI50 in [1] is 13.4 µM (inactive); in experiment [2] it was 22.3 µM (inactive); in [15] it was 28.4 µM (inactive); in experiment [3] it was 21.2 µM (inactive); in [4] it was 74.5 µM (inactive); in experiment [5], 23.4 µM (inactive). In addition, the GI50 in experiment [6] was 43.4 µM (inactive); in experiment [7], 25.1 µM (inactive); in [8], > 10 µM (inactive); in [9], 37.7 µM (inactive); in experiment [10], 19.9 µM (inactive); in experiment [11], 28.8 µM (inactive). The figures for the GI50 in experiment [12], in [13] and in experiment [14] were > 100 µM (inactive), > 100 µM (inactive) and 50.1 µM (inactive), respectively.
Consider `CCOc1ccc(NC(=O)CC2SC(Nc3ccc(C)cc3)=NC2=O)cc1` (stereo not given), for which the GI50 in [2], in experiment [15], in experiment [3], in experiment [4], in [5] and in experiment [6] was > 100 µM (inactive) throughout. Further, the GI50 is > 100 µM (inactive) in experiment [16]; > 100 µM (inactive) in experiment [9]; > 100 µM (inactive) in [10]; > 100 µM (inactive) in experiment [17]; > 100 µM (inactive) in experiment [11]; 29.2 µM (inactive) in experiment [12]. In addition, the GI50 in experiment [13] and in experiment [14] was > 100 µM (inactive) each time.
As to `Nc1ncnc2c1N=CN(Oc1ccccc1)N2`, the GI50 in [1] is > 100 µM (inactive); in [2], > 100 µM (inactive); in experiment [15], 14 µM (inactive); in [5], > 100 µM (inactive); in [16] it was > 100 µM (inactive); in experiment [9], > 100 µM (inactive). Also, the GI50 in experiment [10], in experiment [18], in [11] and in experiment [13] was > 100 µM (inactive) throughout.
